The subject of assay [1] is Bile secretions. Put plainly: Choleretic action of FK506 and synergistic action of IGF-I (bile secretion in bile duct-cannulated anesthetized rats). The class given is in vivo, rat. The following applies: for effect on choleresis (in words): summary of Table 2 data, IGF-I in combination with FK506. The protocol:
Using male SD rats (6 weeks old) under urethane anesthesia (1.2 g/5 ml/kg), a midline incision was made in the abdominal region. Ligation was performed at the lower part of the common bile duct and a polyethylene tube (PE10, Intramedics) was inserted from above and ligated in position. The bile was thus withdrawn extracorporeally and pooled. The rat was kept warm on a hot plate at 37° C. and the volume of the bile withdrawn-was measured at 30-min intervals. […] As to FK506, FK506 Inj. (1P mg/1 ml vial) was used. Rats in the control group received saline both intravenously and subcutaneously. The bile was collected up to 180min after medication. As the baseline secretions, the average of the values at 2 points of time immediately preceding drug administration was used.

The test system of assay [2] is Bile secretions. In words: Anticholeretic action of CsA and antagonizing action of IGF-I (bile secretion in bile duct-cannulated anesthetized rats). The class given is in vivo, rat. The protocol: Using male SD rats (7 weeks old) under urethane anesthesia (1.2 g/5 ml/kg), a midline incision was made in the abdominal region. Ligation was performed at the lower part of the common bile duct and a polyethylene tube (PE10, Intramedics) was inserted from above and ligated in position. The bile was thus withdrawn extracorporeally and pooled. The rat was kept warm on a hot plate at 37° C. and the volume of the bile withdrawn was measured at 30-min intervals. […] (250 mg/5 ml vial) was diluted with saline. Rats in the control group received saline both intravenously and subcutaneously. The bile was collected up to 180 min after drug administration. As the baseline secretions, the average of the values at 2 points of time immediately preceding drug administration was used.

For a further assay, the system named is IGF-I. Put plainly: IGF-I producing action of FK506 (liver and blood IGF-I by rat IGF-I RIA kit after 7 days oral dosing). The assay is classed as in vivo. The following applies: male SD rats; for increase of blood concentration of IGF-I / increase of concentration of IGF-I in the liver: 0.5 hour after final dose. The protocol:
Male SD rats aged 6 weeks were orally dosed with FK506 once daily for 7 consecutive days, and at 0.5 hour following the final dose, the liver and blood were isolated. The blood IGF-I concentration was measured by acid-ethanol extraction and subsequent assay with a rat IGF-I RIA kit (DSL). The hepatic IGF-I level was measured by acetic acid extraction and subsequent assay with the rat IGF-I RIA kit. Five rats per group were used.

Where [3] appears, read: Before administration (baseline).
Setting [4] is: Before administration (baseline), Mean ± S.E.
The mark [5] stands for this setting: FK506 1 mg/kg orally once daily for 7 days.
Setting [6] is: FK506 10 mg/kg orally once daily for 7 days.

As for “IGF-I: insulin-like growth factor I (IGF-I), dissolved in saline, given subcutaneously”, the “Bile secretions, % of preadministration baseline” value (“Bile secretions, %” for short) with Bile secretions [1] (0˜30 min after administration, 10 mg/kg i.v. immunosuppressant, IGF-I 10 mg/kg s.c.) was “(109) %”; in the assay on Bile secretions [1] (30˜60 min after administration, 10 mg/kg i.v. immunosuppressant, IGF-I 10 mg/kg s.c.) it was “(117) %”; with Bile secretions [1] (60˜90 min after administration, 10 mg/kg i.v. immunosuppressant, IGF-I 10 mg/kg s.c.), “(120) %”; with Bile secretions [1] (90˜120 min after administration, 10 mg/kg i.v. immunosuppressant, IGF-I 10 mg/kg s.c.), “(120) %”; in the assay on Bile secretions [1] (120˜150 min after administration, 10 mg/kg i.v. immunosuppressant, IGF-I 10 mg/kg s.c.), “(123) %”; with Bile secretions [1] (150˜180 min after administration, 10 mg/kg i.v. immunosuppressant, IGF-I 10 mg/kg s.c.), “(114) %”. Further, the “Bile secretions, %” value was “(100) %” in the assay on Bile secretions [1] (setting [3]); “(109) %” in the assay with Bile secretions [2] (0˜30 min after administration, CsA 10 mg/kg i.v., IGF-I 10 mg/kg s.c.); “(121) %” with Bile secretions [2] (30˜60 min after administration, CsA 10 mg/kg i.v., IGF-I 10 mg/kg s.c.); “(124) %” with Bile secretions [2] (60˜90 min after administration, CsA 10 mg/kg i.v., IGF-I 10 mg/kg s.c.); “(118) %” in the assay on Bile secretions [2] (90˜120 min after administration, CsA 10 mg/kg i.v., IGF-I 10 mg/kg s.c.); “(121) %” in the assay with Bile secretions [2] (120˜150 min after administration, CsA 10 mg/kg i.v., IGF-I 10 mg/kg s.c.). Besides, the “Bile secretions, %” value was “(118) %” in the assay on Bile secretions [2] (150˜180 min after administration, CsA 10 mg/kg i.v., IGF-I 10 mg/kg s.c.) and “(100) %” in the assay with Bile secretions [2] (setting [3]). Moreover, the Bile secretions in the assay with Bile secretions [1] (setting [4]) is listed as 0.35 ± 0.01 ml/30 min; with Bile secretions [2] (setting [4]) it was 0.33 ± 0.03 ml/30 min. Moreover, the “effect on choleresis (in words)” value in the assay with Bile secretions [1] is recorded as “enhances choleresis”; in the assay on Bile secretions [2] (summary of Table 1 data, IGF-I in combination with CsA) it was “enhances choleresis”.

Consider `C=CC[C@@H]1/C=C(\C)C[C@H](C)C[C@H](OC)[C@H]2O[C@@](O)(C(=O)C(=O)N3CCCC[C@H]3C(=O)O[C@H](/C(C)=C/[C@@H]3CC[C@@H](O)[C@H](OC)C3)[C@H](C)[C@@H](O)CC1=O)[C@H](C)C[C@@H]2OC` [FK506, 17-allyl-1,14-dihydroxy-12-[2-(4-hydroxy-3-methoxycyclohexyl)-1-methylvinyl]-23,25-dimethoxy-13,19,21,27-tetramethyl-11,28-dioxa-4-azatricyclo[22.3.1.0^4,9] octacos-18-ene-2,3,10,16-tetraone], for which the “effect on choleresis (in words)” value in the assay on Bile secretions [1] is given as “has a choleretic action”. Also, the “increase of blood concentration of IGF-I” value in the assay on IGF-I (setting [5]) worked out at 14%; in the assay with IGF-I (setting [6]), 11%. The “increase of concentration of IGF-I in the liver” value worked out at 28% with IGF-I (setting [5]) and 26% in the assay with IGF-I (setting [6]). Moreover, the “IGF-I producing activity (in words)” value in the assay on IGF-I (liver) was “express IGF-I producing activity in the liver”.

These data come from patent publication US6426329B1, “Immunosuppressant activity of insulin-like growth factor I (IGF-I)” (Fujisawa Pharmaceutical Co., Ltd., priority 1997, dated 2002).
